# ChEMBL document CHEMBL1201862, “PubChem BioAssay data set” (2004)
# The source made the active and inactive calls.
# How the values were obtained:
# Cytochrome P450 3A4 = Cytochrome P450 3A4 (Homo sapiens, UniProt P08684);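 further: CYP3A4 tested as one member of a cytochrome P450 panel screen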
# [1] = target: Glucose-6-phosphate 1-dehydrogenase (Homo sapiens, UniProt P11413); experiment: inhibition of Homo sapiens G6PD, dose series – biochemical, fluorescence, selectivity assay for P. falciparum G6PD inhibitor project, dose response (AID 504792); type: functional
# Glucose-6-phosphate 1-dehydrogenase, sequence (P11413 whole entry): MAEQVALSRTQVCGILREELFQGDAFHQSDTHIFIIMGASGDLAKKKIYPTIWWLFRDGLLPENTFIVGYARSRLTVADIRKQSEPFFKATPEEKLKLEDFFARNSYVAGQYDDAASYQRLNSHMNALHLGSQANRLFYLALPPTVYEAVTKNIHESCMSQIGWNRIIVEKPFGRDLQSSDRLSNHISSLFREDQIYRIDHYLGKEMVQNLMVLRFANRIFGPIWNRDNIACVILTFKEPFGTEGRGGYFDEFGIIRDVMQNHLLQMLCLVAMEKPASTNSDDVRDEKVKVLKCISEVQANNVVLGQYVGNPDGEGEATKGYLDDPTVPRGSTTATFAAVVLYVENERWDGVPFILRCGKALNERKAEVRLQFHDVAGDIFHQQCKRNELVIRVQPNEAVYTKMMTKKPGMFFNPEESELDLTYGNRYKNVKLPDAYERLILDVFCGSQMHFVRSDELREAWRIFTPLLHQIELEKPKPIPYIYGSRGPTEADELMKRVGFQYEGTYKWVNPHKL
# Bcl-2-related protein A1 = target: T1, Bcl-2-related protein A1 (Mus musculus, UniProt Q07440); type: functional;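 further: confirmatory dose–response counterscreen on Bfl-1, used to check hits from a UBC13 polyubiquitin inhibitor campaign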
# T1 sequence (Q07440 whole entry): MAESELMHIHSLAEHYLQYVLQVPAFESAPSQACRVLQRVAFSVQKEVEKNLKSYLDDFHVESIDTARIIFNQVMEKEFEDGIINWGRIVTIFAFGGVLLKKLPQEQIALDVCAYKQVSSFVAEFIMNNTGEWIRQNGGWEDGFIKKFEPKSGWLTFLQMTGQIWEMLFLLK
# [2] = target: T2, Ubiquitin-conjugating enzyme E2 N (Homo sapiens, UniProt P61088); type: functional
# T2 sequence (P61088 whole entry): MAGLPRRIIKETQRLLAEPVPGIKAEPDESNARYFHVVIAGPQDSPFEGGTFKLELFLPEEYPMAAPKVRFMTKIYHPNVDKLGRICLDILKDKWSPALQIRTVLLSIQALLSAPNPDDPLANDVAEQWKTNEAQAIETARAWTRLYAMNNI
# [3] = target: T2, Ubiquitin-conjugating enzyme E2 N; type: functional; remark: listed apart in the source
# [4] = target: DNA dC->dU-editing enzyme APOBEC-3A (Homo sapiens, UniProt P31941); experiment: Dose Response confirmation of small molecule APOBEC3A DNA Deaminase Inhibitors via a fluorescence-based single-stranded DNA deaminase assay. [Related pubchem assays (depositor defined):AID493011, AID493024]; type: functional
# DNA dC->dU-editing enzyme APOBEC-3A, sequence (P31941 whole entry): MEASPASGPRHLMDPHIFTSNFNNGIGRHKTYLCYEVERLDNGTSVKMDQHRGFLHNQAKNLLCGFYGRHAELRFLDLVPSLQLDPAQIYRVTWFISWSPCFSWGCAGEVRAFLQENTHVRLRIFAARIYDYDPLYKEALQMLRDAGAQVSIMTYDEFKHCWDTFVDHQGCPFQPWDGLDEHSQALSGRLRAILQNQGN
# [5] = target: DNA dC->dU-editing enzyme APOBEC-3G (Homo sapiens, UniProt Q9HC16); type: functional;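 further: Dose-response counterscreen measuring inhibition of APOBEC3G DNA deaminase activity, run while confirming APOBEC3A inhibitors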
# DNA dC->dU-editing enzyme APOBEC-3G, sequence (Q9HC16 whole entry): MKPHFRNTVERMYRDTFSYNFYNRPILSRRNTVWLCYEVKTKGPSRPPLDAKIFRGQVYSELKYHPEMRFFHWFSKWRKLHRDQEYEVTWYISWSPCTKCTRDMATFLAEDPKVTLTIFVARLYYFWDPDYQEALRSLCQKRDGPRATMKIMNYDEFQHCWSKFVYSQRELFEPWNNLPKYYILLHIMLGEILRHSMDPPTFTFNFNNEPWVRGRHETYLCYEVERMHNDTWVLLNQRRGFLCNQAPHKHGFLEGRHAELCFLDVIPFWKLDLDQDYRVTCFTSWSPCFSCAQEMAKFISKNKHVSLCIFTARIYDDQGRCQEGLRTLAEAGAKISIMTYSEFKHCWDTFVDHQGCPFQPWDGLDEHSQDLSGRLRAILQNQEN
# Cytochrome P450 2C9 = Cytochrome P450 2C9 (Homo sapiens, UniProt P11712)
# Cytochrome P450 2C9, sequence (P11712 whole entry): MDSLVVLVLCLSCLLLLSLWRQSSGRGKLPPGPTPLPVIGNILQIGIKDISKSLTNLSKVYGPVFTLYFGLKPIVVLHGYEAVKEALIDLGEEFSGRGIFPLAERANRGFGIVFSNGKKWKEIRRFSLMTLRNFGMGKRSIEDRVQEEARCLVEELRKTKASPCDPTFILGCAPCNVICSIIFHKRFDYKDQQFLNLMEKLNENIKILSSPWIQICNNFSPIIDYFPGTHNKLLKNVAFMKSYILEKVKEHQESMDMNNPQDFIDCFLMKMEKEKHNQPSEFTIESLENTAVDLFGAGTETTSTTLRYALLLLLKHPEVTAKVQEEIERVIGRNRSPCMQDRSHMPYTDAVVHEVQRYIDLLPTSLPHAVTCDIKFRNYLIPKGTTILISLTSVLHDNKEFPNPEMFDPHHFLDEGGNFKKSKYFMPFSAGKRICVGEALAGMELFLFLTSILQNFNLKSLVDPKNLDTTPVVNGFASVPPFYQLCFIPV
# Cytochrome P450 2D6 [6] = target: T3, Cytochrome P450 2D6 (Homo sapiens, UniProt P10635);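 further: CYP2D6 member of a cytochrome P450 panel assay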
# T3 sequence (P10635 whole entry): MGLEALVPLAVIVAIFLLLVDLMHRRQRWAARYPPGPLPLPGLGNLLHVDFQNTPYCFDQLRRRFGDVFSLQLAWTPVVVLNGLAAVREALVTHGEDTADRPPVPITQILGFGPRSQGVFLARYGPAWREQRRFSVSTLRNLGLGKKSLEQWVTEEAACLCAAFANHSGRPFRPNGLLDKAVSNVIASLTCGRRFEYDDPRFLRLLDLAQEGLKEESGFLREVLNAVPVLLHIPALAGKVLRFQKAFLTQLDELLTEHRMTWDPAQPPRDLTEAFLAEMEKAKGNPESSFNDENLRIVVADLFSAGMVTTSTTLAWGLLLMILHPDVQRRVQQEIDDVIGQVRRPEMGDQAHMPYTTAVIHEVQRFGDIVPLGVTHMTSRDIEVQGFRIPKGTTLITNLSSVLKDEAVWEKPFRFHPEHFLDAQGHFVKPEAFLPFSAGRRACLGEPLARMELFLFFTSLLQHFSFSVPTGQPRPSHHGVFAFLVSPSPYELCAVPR
# [7] = viability of uninfected HEp-2 cells – cell-based, HTS, cytotoxicity control for RSV inhibitor project, dose response (AID 2410); type: functional; details: human respiratory syncytial virus
# [8] = target: T4, Carboxy-terminal domain RNA polymerase II polypeptide A small phosphatase 1 (Homo sapiens, UniProt Q9GZU7); experiment: CTDSP1 inhibitors, concentration-response, biochemical, absorbance readout, ultra-high-throughput screen actives (AID 540297); type: functional
# T4 sequence (Q9GZU7 whole entry): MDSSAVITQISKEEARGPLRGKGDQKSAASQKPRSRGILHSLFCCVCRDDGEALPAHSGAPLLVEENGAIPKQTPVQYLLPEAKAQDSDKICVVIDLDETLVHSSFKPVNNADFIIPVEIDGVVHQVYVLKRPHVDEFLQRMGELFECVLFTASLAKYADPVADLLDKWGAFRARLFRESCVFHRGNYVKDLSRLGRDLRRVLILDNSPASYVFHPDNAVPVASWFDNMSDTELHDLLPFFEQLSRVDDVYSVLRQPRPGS
# Cytochrome P450 2C19 = Cytochrome P450 2C19 (Homo sapiens, UniProt P33261); experiment: Cytochrome panel assay with activity outcomes. Panel member name: p450-cyp2c19 Compounds with AC50 equal or less than 10 uM are considered active; type: functional
# Cytochrome P450 2C19, sequence (P33261 whole entry): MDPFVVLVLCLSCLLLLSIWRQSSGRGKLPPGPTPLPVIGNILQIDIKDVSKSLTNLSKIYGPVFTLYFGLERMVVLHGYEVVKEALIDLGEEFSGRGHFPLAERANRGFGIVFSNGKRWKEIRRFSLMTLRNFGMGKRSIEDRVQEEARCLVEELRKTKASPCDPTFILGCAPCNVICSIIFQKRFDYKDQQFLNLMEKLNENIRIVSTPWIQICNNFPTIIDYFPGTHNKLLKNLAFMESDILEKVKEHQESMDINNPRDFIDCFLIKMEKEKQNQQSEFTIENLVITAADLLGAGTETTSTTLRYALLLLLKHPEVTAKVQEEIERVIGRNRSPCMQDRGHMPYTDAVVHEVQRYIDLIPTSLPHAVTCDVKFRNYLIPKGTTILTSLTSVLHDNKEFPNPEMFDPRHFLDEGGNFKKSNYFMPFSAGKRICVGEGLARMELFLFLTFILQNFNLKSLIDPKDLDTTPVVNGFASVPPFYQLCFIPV
# Cytochrome P450 2D6 [9] = target: T3, Cytochrome P450 2D6; remark: listed apart in the source
# [10] = system: Streptococcus sp. 'group A'; experiment: Streptococcus pyogenes SK(-)GAS viability under kanamycin – luminescence, BacTiterGlo, confirmation, counter-screen for streptokinase expression inhibitor project, dose response (AID 1900); type: functional, organism-based
# Streptococcus = experiment: GAS UMAA2166 growth inhibition – luminescence, BacTiterGlo, counter-screen for streptokinase expression inhibitor project, dose response (AID 1915); type: functional, organism-based;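 further: potency for reduction of bacterial viability or growth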
# [11] = THP-1 cell cytotoxicity, dose response, cytotoxicity control for non-replicating M. tuberculosis project (AID 489025); type: functional
# [12] = Vero E6 cell cytotoxicity, dose response, cytotoxicity control for non-replicating M. tuberculosis project, secondary assay (AID 492998); type: functional, VeroE6; details: Vero C1008
# cells = type: functional
# Cytochrome P450 1A2 = target: T5, Cytochrome P450 1A2 (Homo sapiens, UniProt P05177);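 further: PubChem cytochrome P450 panel assay, CYP1A2 panel member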
# T5 sequence (P05177 whole entry): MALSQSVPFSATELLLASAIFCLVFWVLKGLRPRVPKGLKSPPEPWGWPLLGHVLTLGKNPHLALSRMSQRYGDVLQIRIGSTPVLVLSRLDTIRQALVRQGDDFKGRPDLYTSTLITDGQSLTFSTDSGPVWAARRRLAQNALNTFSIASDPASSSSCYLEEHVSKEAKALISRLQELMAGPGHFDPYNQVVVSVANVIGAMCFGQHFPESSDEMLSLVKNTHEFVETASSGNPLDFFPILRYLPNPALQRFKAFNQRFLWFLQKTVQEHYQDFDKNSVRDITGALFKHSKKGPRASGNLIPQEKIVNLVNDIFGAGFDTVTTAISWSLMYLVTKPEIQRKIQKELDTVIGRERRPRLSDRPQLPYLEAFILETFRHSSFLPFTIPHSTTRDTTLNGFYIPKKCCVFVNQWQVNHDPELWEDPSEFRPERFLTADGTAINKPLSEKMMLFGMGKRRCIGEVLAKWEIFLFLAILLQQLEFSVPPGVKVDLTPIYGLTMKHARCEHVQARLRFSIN
# [13] = target: T6, Heat shock factor protein 1 (Mus musculus, UniProt P38532); experiment: enhancement of HSF1-driven luciferase signal – cell-based, NIH3T3, luminescence, dose retest, confirmation (AID 435004); type: functional;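 further: stress induced by proteasome inhibitor MG132 added 30 min after compound; luciferase reporter driven by HSF1 response element in NIH3T3 cells; actives raise luminescence as potentiators of the MG132 stress response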
# T6 sequence (P38532 whole entry): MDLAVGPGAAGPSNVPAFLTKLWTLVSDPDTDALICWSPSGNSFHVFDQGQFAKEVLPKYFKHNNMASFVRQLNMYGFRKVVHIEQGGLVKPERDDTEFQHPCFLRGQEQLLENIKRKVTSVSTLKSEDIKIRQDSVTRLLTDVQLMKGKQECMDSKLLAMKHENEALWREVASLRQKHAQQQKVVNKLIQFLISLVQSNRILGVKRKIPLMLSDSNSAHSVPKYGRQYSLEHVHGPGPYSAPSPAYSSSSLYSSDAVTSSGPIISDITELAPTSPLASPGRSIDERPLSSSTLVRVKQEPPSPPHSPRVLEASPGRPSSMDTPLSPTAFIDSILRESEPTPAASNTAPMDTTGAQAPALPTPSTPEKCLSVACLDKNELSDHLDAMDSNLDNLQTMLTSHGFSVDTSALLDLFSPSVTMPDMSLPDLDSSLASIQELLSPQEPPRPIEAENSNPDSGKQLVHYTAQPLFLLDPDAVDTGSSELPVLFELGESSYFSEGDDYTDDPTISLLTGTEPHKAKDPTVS
# [14] = target: Alkaline phosphatase, placental type (Homo sapiens, UniProt P05187); experiment: human placental alkaline phosphatase inhibition – biochemical, luminescence, confirmation (AID 1512); type: functional
# Alkaline phosphatase, placental type, sequence (P05187 whole entry): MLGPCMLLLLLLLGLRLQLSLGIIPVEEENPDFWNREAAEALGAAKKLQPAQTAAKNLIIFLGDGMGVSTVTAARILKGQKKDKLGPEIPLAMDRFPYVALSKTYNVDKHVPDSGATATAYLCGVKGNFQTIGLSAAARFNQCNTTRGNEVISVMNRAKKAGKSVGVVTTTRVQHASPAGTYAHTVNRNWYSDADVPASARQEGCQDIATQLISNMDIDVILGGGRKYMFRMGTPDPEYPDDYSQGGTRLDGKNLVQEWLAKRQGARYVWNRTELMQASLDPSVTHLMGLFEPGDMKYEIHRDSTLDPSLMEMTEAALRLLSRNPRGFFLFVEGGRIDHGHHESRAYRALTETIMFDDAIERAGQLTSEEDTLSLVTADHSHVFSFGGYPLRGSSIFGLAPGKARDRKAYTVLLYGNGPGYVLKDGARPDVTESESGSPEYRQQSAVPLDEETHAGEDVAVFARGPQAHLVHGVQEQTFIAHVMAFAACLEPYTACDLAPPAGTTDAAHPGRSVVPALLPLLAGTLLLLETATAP
# [15] = target: T7, Alkaline phosphatase, tissue-nonspecific isozyme (Homo sapiens, UniProt P05186); experiment: potency against alkaline phosphatase TNAP – biochemical, luminescent, dose response, SAR follow-up (AID 1056)
# T7 sequence (P05186 whole entry): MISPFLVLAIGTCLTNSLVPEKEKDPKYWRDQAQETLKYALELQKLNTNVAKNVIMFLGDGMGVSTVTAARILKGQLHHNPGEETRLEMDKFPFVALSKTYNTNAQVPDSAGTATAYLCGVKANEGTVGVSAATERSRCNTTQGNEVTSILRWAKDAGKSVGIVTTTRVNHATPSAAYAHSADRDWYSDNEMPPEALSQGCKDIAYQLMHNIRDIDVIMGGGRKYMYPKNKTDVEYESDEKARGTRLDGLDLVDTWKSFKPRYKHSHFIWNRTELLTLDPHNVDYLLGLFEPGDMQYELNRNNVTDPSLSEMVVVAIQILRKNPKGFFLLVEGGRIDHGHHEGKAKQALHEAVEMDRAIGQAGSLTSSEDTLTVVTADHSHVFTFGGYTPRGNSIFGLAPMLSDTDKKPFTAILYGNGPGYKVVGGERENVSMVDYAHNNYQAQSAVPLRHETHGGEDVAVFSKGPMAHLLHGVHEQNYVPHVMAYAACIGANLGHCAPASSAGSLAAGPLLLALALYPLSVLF
# P388/ADR = experiment: cells; type: functional; details: Mus musculus
# SN12K1 = experiment: cells; type: functional; details: Homo sapiens
# P388 = experiment: cells; type: functional; details: Mus musculus
# [16] = target: Dual specificity tyrosine-phosphorylation-regulated kinase 1A (Rattus norvegicus, UniProt Q63470); type: biochemical, Homo sapiens
# Cytochrome P450 3A4, sequence (P08684 whole entry): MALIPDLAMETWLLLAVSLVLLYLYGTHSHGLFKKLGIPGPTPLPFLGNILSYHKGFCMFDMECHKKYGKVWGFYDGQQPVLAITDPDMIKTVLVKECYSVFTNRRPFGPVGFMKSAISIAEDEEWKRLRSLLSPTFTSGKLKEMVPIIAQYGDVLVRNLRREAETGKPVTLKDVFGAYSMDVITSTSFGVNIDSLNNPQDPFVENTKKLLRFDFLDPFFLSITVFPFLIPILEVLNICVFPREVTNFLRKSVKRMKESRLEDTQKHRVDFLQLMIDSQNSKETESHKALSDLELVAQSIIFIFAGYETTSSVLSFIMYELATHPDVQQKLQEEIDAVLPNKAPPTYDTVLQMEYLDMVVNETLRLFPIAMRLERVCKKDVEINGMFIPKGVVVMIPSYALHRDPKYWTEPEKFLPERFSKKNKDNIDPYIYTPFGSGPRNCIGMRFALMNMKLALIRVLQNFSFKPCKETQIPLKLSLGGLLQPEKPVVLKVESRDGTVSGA
smiles,measurement,setting,value
COC(=O)[C@](C)(N)Cc1ccc(O)cc1,AC50,Cytochrome P450 3A4,inconclusive
Cc1ccc(-c2csc(NC(=O)c3ccc(Br)cc3)c2C(=O)O)cc1,IC50,[1],> 80 µM (inactive)
O=C(Nc1ccc(F)c(Cl)c1)C1CCN(c2ncnc3c2nc2n3CCCCC2)CC1,IC50,Bcl-2-related protein A1,> 20 µM (inactive)
same,IC50,[2],9.53 µM (active)
same,IC50,[3],8.53 µM (active)
CC(=O)Nc1nnc(SCC(=O)NCCOc2ccccc2)s1,IC50,[4],4.13 µM (active)
same,IC50,[5],5.12 µM (active)
O=C(CNC(=O)c1ccco1)OCC(=O)c1ccc([N+](=O)[O-])cc1,IC50,[1],> 80 µM (inactive)
COCCNC(=O)COC(=O)/C=C/c1cnc2ccccc2n1,AC50,Cytochrome P450 2C9,1.12 µM (inconclusive)
same,AC50,Cytochrome P450 2D6 [6],inconclusive
CCN1C(NCCCCO)=N[C@@H](c2cccc(F)c2)C(C(=O)OC)=C1C,IC50,[4],3.06 µM (active)
same,IC50,[5],5.05 µM (active)
CC(C)c1ccc(/C=C2\SC(=O)N(CC(=O)NC3C=CS(=O)(=O)C3)C2=O)cc1 (stereo unspecified),CC50,[7],18.8 µM (active)
same,IC50,[8],11.8 µM (active)
CN(C)S(=O)(=O)c1ccc(NC(=O)Cc2ccc(S(=O)(=O)N3CCOCC3)s2)cc1,IC50,[8],9.34 µM (active)
COC(=O)c1ccc(NC(=O)N2CCC(O)(c3cccnc3)CC2)cc1,AC50,Cytochrome P450 2C19,inconclusive
same,AC50,Cytochrome P450 2D6 [9],15.8 µM (inconclusive)
same,AC50,Cytochrome P450 3A4,inconclusive
c1ccc2c(c1)nnn2CN1CCOCC1,AC50,Cytochrome P450 2D6 [6],inconclusive
O=C1c2cccc3cccc(c23)C(=O)N1CC1CCN(CC(O)COCc2ccc3c(c2)OCO3)CC1 (stereo unspecified),IC50,Bcl-2-related protein A1,> 20 µM (inactive)
same,IC50,[2],4.33 µM (active)
same,IC50,[3],3.25 µM (active)
CN1CCN(C(=O)C2CCN(c3ncnc4c3nc3n4CCCCC3)CC2)CC1,IC50,Bcl-2-related protein A1,> 20 µM (inactive)
same,IC50,[2],6.77 µM (active)
same,IC50,[3],3.51 µM (active)
CC(C)CCC[C@@H](C)[C@@H]1CC[C@@H]2[C@H]3CC[C@H]4C[C@@H](N)CC[C@@]4(C)[C@@H]3CC[C@]21C,AC50,Cytochrome P450 2C19,inconclusive
same,AC50,Cytochrome P450 2D6 [6],inconclusive
CCC(C(=O)NC1CCCC1)N(C(=O)c1snc(C(N)=O)c1N)c1ccc2c(c1)OCCO2 (stereo unspecified),IC50,Bcl-2-related protein A1,> 20 µM (inactive)
same,IC50,[2],5.82 µM (active)
same,IC50,[3],7.69 µM (active)
C[C@H](Br)CN(C[C@H](C)Br)c1ccc2c(c1)Cc1ccccc1-2,AC50,Cytochrome P450 2D6 [6],inconclusive
COc1cc2c(cc1NC(=O)CSc1nc3ccccc3[nH]1)oc1ccccc12,IC50,[8],17.1 µM (active)
CCC(CC)c1nnc(NC(=O)c2ccc3ccccc3n2)s1,EC50,[10],8.53 µM (active)
same,EC50,Streptococcus,12.5 µM (active)
same,CC50,[11],> 40 µM (active)
same,CC50,[12],18.4 µM (active)
same,IC50,cells,0.42 µM (active)
same,AC50,Cytochrome P450 2C19; read-out: AC50,28.2 µM (active)
same,AC50,Cytochrome P450 1A2,2.51 µM (active)
same,AC50,Cytochrome P450 2C9,7.94 µM (active)
same,AC50,Cytochrome P450 2D6 [6],inactive
COc1ccc(C(=O)N2CCC3(CC2)CCN(c2ncccn2)CC3)cc1,AC50,Cytochrome P450 2D6 [9],20 µM (inconclusive)
same,AC50,Cytochrome P450 3A4,inconclusive
Cc1ccc(N(C(=O)c2snc(C(N)=O)c2N)C(C(=O)NC2CCCC2)c2ccco2)cc1 (stereo unspecified),IC50,Bcl-2-related protein A1,> 20 µM (inactive)
same,IC50,[2],13.3 µM (active)
same,IC50,[3],8.18 µM (active)
O=C1CN(C(=O)c2ccc(Br)o2)C(c2ccc(F)cc2)c2cc(Cl)ccc2N1 (stereo unspecified),EC50,[13],> 260 µM (inactive)
same,AC50,Cytochrome P450 1A2,0.0631 µM (inconclusive)
same,AC50,Cytochrome P450 3A4,inconclusive
O/N=C/c1cc(Cl)ccc1OCc1cccc2ccccc12,IC50,[14],> 100 µM (inactive)
same,IC50,[15],> 100 µM (inactive)
CC1C(=O)C(C)C(c2ccccc2)N(N=O)C1c1ccccc1 (stereo unspecified),GI50,P388/ADR,> 100 µM (inactive)
same,GI50,SN12K1,42.8 µM (inactive)
same,GI50,P388,> 100 µM (inactive)
CCCCN.N#C/C(=C\c1ccc(O)cc1)C(=O)O,AC50,[16],3.24 µM (active)
CC1=CCCC2C1(C)CCC(C)C2(C)Cc1cc(O)ccc1O (stereo unspecified),GI50,P388/ADR,1.63 µM (inactive)
same,GI50,SN12K1,4.2 µM (inactive)
same,GI50,P388,1.37 µM (inactive)
Cc1ccc(/C=N/NC(=O)c2cccs2)cc1[N+](=O)[O-],AC50,Cytochrome P450 2C19; read-out: AC50,31.6 µM (inconclusive)
same,AC50,Cytochrome P450 2D6 [9],0.0251 µM (inconclusive)
same,AC50,Cytochrome P450 3A4,inconclusive
Cc1cnn(CC(=O)c2ccc(O)c(O)c2)c1,IC50,[14],2.13 µM (active)
same,IC50,[15],> 100 µM (inactive)
CN(C)CCN1C(=O)c2cccc3cc(N)cc(c23)C1=O [AMONAFIDE],GI50,P388/ADR,1.14 µM (inactive)
same,GI50,SN12K1,2.15 µM (inactive)
same,GI50,P388,0.524 µM (active)
